According to patent publication EP1043986B1, “MIXTURE AND PHARMACEUTICAL COMPOSITION COMPRISING Z-4-HYDROXYTAMOXIFEN AND CYCLODEXTRIN” (priority 1997, dated 1999):

Test: 10-day stability test in water and in 96 % ethanol, room temperature, normal day light, capillary electrophoresis
Assay type: physicochemical
Conditions: 10-days storage in 96 % ethanol
Experimental: A 10-day stability test in water and in 96 % ethanol at room temperature and exposure to normal day light, using 4-hydroxytamoxifen and the 4-hydrorytamoxifen/ γ-cyclodextrin complex prepared according to example 1 was performed. The change of E/Z isomer ratio was analyzed with capillary electrophoresis.

Efficiency value (ratio of uncomplexed and complexed 4-hydroxytamoxifen re/z values): 4,65
Ratio re/z (room temperature, normal day light): 0,223
Substance: 1-(p-β-dimethylaminoethoxyphenyl)-1-(p-hydroxyphenyl)-2-phenylbut-1-en [4-Hydroxytamoxifen]
